{
  "source": "patent US20070049518A1",
  "about": "“Novel method of treatment of inflammatory skin conditions” (priority 2005, published 2007)",
  "key": {"[1]": {"test_system": "V8 protease in S. aureus 8325-4 culture supernatant", "experiment": "V8 protease activity in supernatant of S. aureus grown with compound", "format": "cell-based, Staphylococcus aureus", "experimental": "Duplicate samples of brain heart infusion medium (5 ml; Becton Dickinson and Co.) containing 10% skimmed milk and 2% (v/v) DMSO vehicle±Compound 12 were inoculated with S. aureus 8325-4 (approximately 10^7 cells in tryptic soy broth) and incubated for 16 h at 37° C./220 rpm. Cultures were centrifuged to remove bacteria and the culture supernatants stored at −70° C. pending analysis of protease activity.\nEnzyme activities were measured in mixtures containing 90 mM MOPS (sodium) buffer pH 7.0 (0.1 ml), 0.045% Brij 35, 2% (v/v) DMSO vehicle±Compound 12 and culture supernatant (4 μl). The concentration of compound used was the same as that which had been used to culture the assayed sample. Further additions to the reaction mixtures were as follows. Aureolysin assay: 4.5 mM calcium chloride, 9 μM E-64 (to inhibit cysteine protease activity) and 10 μM Mca-Pro-Leu-Gly-Leu-Dap(Dnp)-Ala-Arg-amide (Bachem); V8 protease assay: 10 μM Mca-Leu-Glu-Val-Asp-Gly-Trp-Lys(Dnp)-amide (Bachem); cysteine protease assay: 1.8 mM cysteine-HCl (pH-adjusted with NaOH), 9 mM EDTA and 0.1 mM Z-Phe-Arg-AMC hydrochloride (Bachem). The rate of product formation at 37° C. was monitored over 6 h taking readings at 15 min intervals using a POLARstar OPTIMA plate reader (BMG LABTECH Ltd) with 320 nm excitation/405 nm emission for aureolysin and V8 assays and 390 nm excitation/460 nm emission for the cysteine protease assay. Enzyme activities were determined from the linear rate of fluorescence increase and converted to percent inhibition by reference to vehicle control samples."}, "[2]": {"molecular_target": "T1, recombinant human cathepsin D (Homo sapiens, UniProt P07339)", "T1 construct": "recombinant human cathepsin D (R&D Systems Inc); purchased R&D Systems Inc", "T1 sequence (P07339 65-412)": "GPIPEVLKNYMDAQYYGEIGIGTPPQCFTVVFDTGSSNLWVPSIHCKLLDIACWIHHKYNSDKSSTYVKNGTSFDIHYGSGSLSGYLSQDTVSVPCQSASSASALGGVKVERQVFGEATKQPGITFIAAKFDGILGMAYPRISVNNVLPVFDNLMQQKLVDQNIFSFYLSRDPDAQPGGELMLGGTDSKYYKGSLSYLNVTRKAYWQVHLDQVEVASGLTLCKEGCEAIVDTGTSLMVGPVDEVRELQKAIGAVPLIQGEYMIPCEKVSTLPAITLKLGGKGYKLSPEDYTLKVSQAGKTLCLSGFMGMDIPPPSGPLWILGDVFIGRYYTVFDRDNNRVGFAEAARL", "experiment": "Selectivity profile, cathepsin D", "format": "biochemical", "details": "read-out: inhibition at 0.1 mM, Cathepsin D", "experimental": "(§1) Inhibitory activity was tested in reaction mixtures (0.1 ml) containing 2% (v/v) DMSO vehicle±compound plus additions as follows. V8 protease: 90 mM MOPS (sodium) buffer pH 7.0, […] calcium chloride, 0.045% Brij 35, 10 μM Mca-Leu-Glu-Val-Asp-Gly-Trp-Lys(Dnp)-amide (Bachem) and V8 (BioCentrum Ltd; 30 ng). Staphopain A and B: 90 mM MOPS (sodium) buffer pH 7.0, 1.8 mM cysteine-HCl (pH-adjusted with NaOH), 0.045% Brij 35, 0.1 mM Z-Phe-Arg-AMC hydrochloride (Bachem) and staphopain A or B (BioCentrum Ltd; 30 ng). Human kallikrein 5: 0.1M sodium phosphate buffer pH 8.0, 0.045% Brij 35, 0.1 mM Boc-Val-Pro-Arg-AMC (Sigma) and recombinant human kallikrein 5 (R&D Systems Inc; 6 ng). Human kallikrein 7: 72 mM Tris-HCl pH 8.0, 0.033% Brij 35, 1.2 mM S-2586 (Chromogenix Instrumentation Laboratory SpA) and recombinant human kallikrein 7 (R&D Systems Inc; 0.6 μg) that had been thermolysin-activated according to the manufacturer's instructions. Human angiotensin-converting enzyme (ACE): 45 mM MES (sodium) buffer pH 6.5, 0.045% Brij 35, 10 μM Mca-[…]Dnp)-OH(R&D Systems Inc) and recombinant human ACE (R&D Systems Inc; 1.3 ng). Human cathepsin D: 0.1M sodium acetate buffer pH 3.5, 0.2M sodium chloride, 0.045% Brij 35, 10 μM Mca-Pro-Leu-Gly-Leu-Dap(Dnp)-Ala-Arg-amide (Bachem) and recombinant human cathepsin D (R&D Systems Inc; 8 ng) activated according to the manufacturer's instructions. […]"}, "Solubility in water": {"experiment": "Solubility in water", "format": "physicochemical", "details": "particularly when the solid is in amorphous form"}, "recombinant human ACE": {"molecular_target": "T2, recombinant human ACE (Homo sapiens, UniProt P12821)", "T2 construct": "purchased R&D Systems Inc", "T2 sequence (P12821 30-1306)": "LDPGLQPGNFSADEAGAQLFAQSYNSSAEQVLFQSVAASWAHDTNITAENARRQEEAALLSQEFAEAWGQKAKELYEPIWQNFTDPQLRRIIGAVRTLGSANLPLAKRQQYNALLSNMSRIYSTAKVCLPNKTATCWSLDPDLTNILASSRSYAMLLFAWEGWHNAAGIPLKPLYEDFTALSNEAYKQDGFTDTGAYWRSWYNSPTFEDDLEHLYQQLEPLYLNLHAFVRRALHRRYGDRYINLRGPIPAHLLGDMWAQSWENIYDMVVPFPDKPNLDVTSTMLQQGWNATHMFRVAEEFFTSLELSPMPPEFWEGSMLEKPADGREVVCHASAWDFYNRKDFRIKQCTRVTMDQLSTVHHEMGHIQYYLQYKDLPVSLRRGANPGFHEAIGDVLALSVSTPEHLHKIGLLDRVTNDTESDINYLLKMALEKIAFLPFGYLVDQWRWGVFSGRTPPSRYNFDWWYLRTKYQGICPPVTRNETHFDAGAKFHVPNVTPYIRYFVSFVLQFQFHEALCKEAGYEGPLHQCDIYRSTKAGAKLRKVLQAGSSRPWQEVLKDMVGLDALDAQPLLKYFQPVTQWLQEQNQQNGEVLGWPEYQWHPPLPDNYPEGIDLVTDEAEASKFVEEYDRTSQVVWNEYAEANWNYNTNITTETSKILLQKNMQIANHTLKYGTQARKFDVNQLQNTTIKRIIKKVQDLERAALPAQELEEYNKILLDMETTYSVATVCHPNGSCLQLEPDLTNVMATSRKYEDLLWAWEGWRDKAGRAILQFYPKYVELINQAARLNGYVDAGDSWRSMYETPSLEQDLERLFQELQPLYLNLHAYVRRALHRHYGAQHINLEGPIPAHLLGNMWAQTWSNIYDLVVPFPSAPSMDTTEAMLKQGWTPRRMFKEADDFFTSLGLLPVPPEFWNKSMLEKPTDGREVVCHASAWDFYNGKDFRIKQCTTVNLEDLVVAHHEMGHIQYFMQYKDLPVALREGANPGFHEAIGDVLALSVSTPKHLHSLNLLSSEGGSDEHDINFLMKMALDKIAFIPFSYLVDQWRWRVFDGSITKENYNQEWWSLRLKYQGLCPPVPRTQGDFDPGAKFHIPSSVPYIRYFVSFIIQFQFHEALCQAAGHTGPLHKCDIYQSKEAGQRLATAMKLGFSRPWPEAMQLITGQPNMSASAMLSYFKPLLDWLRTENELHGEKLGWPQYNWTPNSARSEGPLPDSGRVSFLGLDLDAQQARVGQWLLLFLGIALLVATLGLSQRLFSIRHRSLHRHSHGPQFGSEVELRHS", "experiment": "Selectivity profile, ACE", "format": "biochemical", "details": "read-out: inhibition at 0.1 mM, ACE", "experimental": "as §1"}, "[3]": {"test_system": "protease activity in skin wash samples from patients with acute AD", "experiment": "Protease activity in skin wash samples, fluorogenic enzyme assay", "format": "biochemical, human", "experimental": "A method has been developed to evaluate protease activity in skin washings. Skin washings from patients with acute eczema may be obtained by aspirating 0.5 ml sterile physiological saline over the skin surface using a sterile, disposable plastic Pasteur pipette The skin area ( 1 cm^2) is defined by a sterile open-ended plastic cylinder. […] Samples were incubated at 37° C. in a POLARstar Optima plate reader (BMG Labtech Ltd.) and fluorescence readings (320 nm excitation/405 nm emission) taken every 15 min for 6 h. Activity was expressed as the rate of increase in fluorescence as a function of time."}},
  "data": [
    {"smiles": "CNC(=O)[C@@H](NC(=O)[C@H](CC(=O)NO)CC(C)C)C(C)(C)C", "note": "[Compound 12, (S)—N1-((S)-3,3-dimethyl-1-(methylamino)-1-oxobutan-2-yl)-N4-hydroxy-2-isobutylsuccinamide]", "values": [
      {"measurement": "Inhibition (%) V8 protease", "setting": "[1]; Compound 12 40 μM in culture and assay", "result": 83, "unit": "%"},
      {"measurement": "Inhibition (%) V8 protease", "setting": "[1]; Compound 12 79 μM in culture and assay", "result": 91, "unit": "%"},
      {"measurement": "Inhibition (%) V8 protease", "setting": "[1]; Compound 12 159 μM in culture and assay", "result": 97, "unit": "%"},
      {"measurement": "Inhibition (%) V8 protease", "setting": "[1]; Compound 12 317 μM in culture and assay", "result": 99, "unit": "%"},
      {"measurement": "inhibition at 100 µM", "setting": "[2]", "result": 1, "unit": "%"},
      {"measurement": "solubility in water (in words)", "setting": "Solubility in water", "result": "particularly soluble in water"},
      {"measurement": "inhibition at 100 µM", "setting": "recombinant human ACE", "result": 0, "unit": "%"}
    ]},
    {"smiles": "CNC(=O)[C@@H](NC(=O)[C@@H](CC(=O)NO)CC(C)C)C(C)(C)C", "note": "[Compound 11, (R)—N1-((S)-3,3-dimethyl-1-(methylamino)-1-oxobutan-2-yl)-N4-hydroxy-2-isobutylsuccinamide]", "values": [
      {"measurement": "inhibition of protease activity in skin wash samples (in words)", "setting": "[3]; 50 μM, fluorogenic assay, AD patients", "result": "significant inhibition of protease activity"},
      {"measurement": "% Inhibition protease activity with compound 11", "setting": "[3]; 50 μM, skin wash sample 5", "result": 100, "unit": "%"},
      {"measurement": "% Inhibition protease activity with compound 11", "setting": "[3]; 50 μM, skin wash sample 7", "result": 48.7, "unit": "%"},
      {"measurement": "% Inhibition protease activity with compound 11", "setting": "[3]; 50 μM, skin wash sample 14", "result": 88.5, "unit": "%"},
      {"measurement": "% Inhibition protease activity with compound 11", "setting": "[3]; 50 μM, skin wash sample 17", "result": 96.4, "unit": "%"},
      {"measurement": "% Inhibition protease activity with compound 11", "setting": "[3]; 50 μM, skin wash sample 18", "result": 75.6, "unit": "%"},
      {"measurement": "% Inhibition protease activity with compound 11", "setting": "[3]; 50 μM, skin wash sample 21", "result": 85.1, "unit": "%"},
      {"measurement": "% Inhibition protease activity with compound 11", "setting": "[3]; 50 μM, skin wash sample 26", "result": 85.3, "unit": "%"},
      {"measurement": "% Inhibition protease activity with compound 11", "setting": "[3]; 50 μM, skin wash sample 30", "result": 100, "unit": "%"},
      {"measurement": "% Inhibition protease activity with compound 11", "setting": "[3]; 50 μM, skin wash sample 36", "result": 95.3, "unit": "%"},
      {"measurement": "% Inhibition protease activity with compound 11", "setting": "[3]; 50 μM, skin wash sample 37", "result": 81.8, "unit": "%"},
      {"measurement": "% Inhibition protease activity with compound 11", "setting": "[3]; 50 μM, skin wash sample 39", "result": 100, "unit": "%"},
      {"measurement": "% Inhibition protease activity with compound 11", "setting": "[3]; 50 μM, skin wash sample 40", "result": 85.6, "unit": "%"},
      {"measurement": "% Inhibition protease activity with compound 11", "setting": "[3]; 50 μM, skin wash sample 43", "result": 91.8, "unit": "%"},
      {"measurement": "% Inhibition protease activity with compound 11", "setting": "[3]; 50 μM, skin wash sample 48", "result": 96.9, "unit": "%"},
      {"measurement": "Protease activity with 50 μM compound 11", "setting": "[3]; skin wash sample 5", "result": 0, "unit": "FIU/min/μl"},
      {"measurement": "Protease activity with 50 μM compound 11", "setting": "[3]; skin wash sample 7", "result": 0.271, "unit": "FIU/min/μl"},
      {"measurement": "Protease activity with 50 μM compound 11", "setting": "[3]; skin wash sample 14", "result": 0.0761, "unit": "FIU/min/μl"},
      {"measurement": "Protease activity with 50 μM compound 11", "setting": "[3]; skin wash sample 17", "result": 0.123, "unit": "FIU/min/μl"},
      {"measurement": "Protease activity with 50 μM compound 11", "setting": "[3]; skin wash sample 18", "result": 0.0674, "unit": "FIU/min/μl"},
      {"measurement": "Protease activity with 50 μM compound 11", "setting": "[3]; skin wash sample 21", "result": 0.0302, "unit": "FIU/min/μl"},
      {"measurement": "Protease activity with 50 μM compound 11", "setting": "[3]; skin wash sample 24 (activity without compound 0)", "result": 0.00122, "unit": "FIU/min/μl"},
      {"measurement": "Protease activity with 50 μM compound 11", "setting": "[3]; skin wash sample 26", "result": 0.0554, "unit": "FIU/min/μl"},
      {"measurement": "Protease activity with 50 μM compound 11", "setting": "[3]; skin wash sample 30", "result": 0, "unit": "FIU/min/μl"},
      {"measurement": "Protease activity with 50 μM compound 11", "setting": "[3]; skin wash sample 36", "result": 0.0173, "unit": "FIU/min/μl"},
      {"measurement": "Protease activity with 50 μM compound 11", "setting": "[3]; skin wash sample 37", "result": 0.126, "unit": "FIU/min/μl"},
      {"measurement": "Protease activity with 50 μM compound 11", "setting": "[3]; skin wash sample 39", "result": 0, "unit": "FIU/min/μl"},
      {"measurement": "Protease activity with 50 μM compound 11", "setting": "[3]; skin wash sample 40", "result": 0.103, "unit": "FIU/min/μl"},
      {"measurement": "Protease activity with 50 μM compound 11", "setting": "[3]; skin wash sample 43", "result": 0.0814, "unit": "FIU/min/μl"},
      {"measurement": "Protease activity with 50 μM compound 11", "setting": "[3]; skin wash sample 48", "result": 0.0287, "unit": "FIU/min/μl"}
    ]}
  ]
}
